Laboratory results: patent US20240425512A1, “NITROGEN-CONTAINING HETEROCYCLIC COMPOUND, PHARMACEUTICAL COMPOSITION THEREOF AND APPLICATION THEREOF” (280 Bio, Inc., priority 2023, published 2024)
Read-outs that look alike come from different tables or passages of the source.

Tests used:
[1] = test system: Capan-2 pancreatic cancer cell with KRAS G12V mutation; assay: Proliferation inhibition on RAS cell lines measured by CTG, Capan-2; assay type: cell-based; conditions: Homo sapiens, 144 h; Table 2; Capan-2 cells, incubated for 6 days, CellTiter Glo; read-out: IC50 (Capan-2^i)
Description: (§1) NCI-H358 is a human non-small cell lung cancer cell line with KRAS G12C mutation; AGS is a gastric cancer cell line with KRAS G12D mutation; SW620 is a colon cancer cell with KRAS G12V mutation; NCI-H460 is a non-small cell lung cancer cell with KRAS Q61H mutation; MKN1 is a wild-type gastric cancer cell with KRAS-amplified; LS513 is a colon cancer cell with KRAS G12D mutation; LoVo is a colon cancer cell with KRAS G13D mutation; NCI-H441 is a lung cancer cell with KRAS G12V mutation, and Capan-2 is a pancreatic cancer cell with KRAS G12V mutation.
(§2) The proliferation inhibitory effect of the compounds on various mutations was evaluated by determining the proliferation inhibitory activity of the compounds on these cell lines.
(§3) The assay was conducted on either 384-well plates or 96-well plates. The procedures are as follows:
(§4) The cell suspensions were added to 384- or 96-well plates (384-well plate: 50 μL; 96-well plate: 100 μL) except for peripheral wells. The plates were placed in a carbon dioxide incubator overnight. NCI-H358, AGS, NCI-H460, MKN-1, LS513, LoVo, and NCI-H441 were placed in a 5%, 370 carbon dioxide incubator overnight, and SW620 was placed in a 0%, 370 carbon dioxide incubator overnight. The HPD300 micro-dosing instrument was used to add the corresponding concentration of compound to each well (9-10 concentration gradients of compound were obtained by 3-fold dilution). Cell plates were incubated in a carbon dioxide incubator for 5-6 days. NCI-H358, AGS, NCI-H460 and MKN-1 were incubated at 5%, 37° incubator and SW620 was incubated at 0%, 370 incubator. On the day of plate measurement, the 384- or 96-well plates were first equilibrated at room temperature for 10-30 min, then CellTiter Glo reagent (384-well plate: 25 μL; 96-well plate: 100 μL) was added to the 384- or 96-well plate, shaken for 10 min away from light, and incubated for 10 min. The plates were placed into Victor NIVO or ENVIDION reader plates, and XLFit was utilized to plot the pharmacodynamic inhibition curve and calculate the IC50 value. “IC50>10 μM” is denoted by “*”, “10 μM≥IC50≥1 μM” is denoted by “**”, and “1 μM≥IC50>100 nM” is denoted by “***”, “IC50<100 nM” is denoted by “****”

[2] = test system: LS513 colon cancer cell with KRAS G12D mutation; assay: Proliferation inhibition on RAS cell lines measured by CTG, LS513; assay type: cell-based; conditions: LS513 cells, incubated for 6 days, read-out: IC50 (LS513^f)
Description: as §1, §2, §3, §4

[3] = test system: NCI-H358 human non-small cell lung cancer cell line with KRAS G12C mutation; assay: Proliferation inhibition on RAS cell lines measured by CTG, NCI-H358; assay type: cell-based; conditions: Table 1, NCI-H358 cells, incubated for 6 days, CellTiter Glo, read-out: IC50 (H358 ^b)
Description: as §1, §2, §3, §4

[4] = test system: NCI-H460 non-small cell lung cancer cell with KRAS Q61H mutation; assay: Proliferation inhibition on RAS cell lines measured by CTG, NCI-H460; assay type: cell-based; conditions: Table 1, NCI-H460 cells, incubated for 6 days, CellTiter Glo, read-out: IC50 (NCI-H460 ^d)
Description: as §1, §2, §3, §4

[5] = test system: AGS gastric cancer cell line with KRAS G12D mutation; assay: Proliferation inhibition on RAS cell lines measured by CTG (CellTiter Glo), AGS; assay type: cell-based; conditions: Table 1, AGS cells, incubated for 5 days
Description: as §1, §2, §3, §4

[6] = test system: SW620 colon cancer cell with KRAS G12V mutation; assay: Proliferation inhibition on RAS cell lines measured by CTG, SW620; assay type: cell-based; conditions: Table 1, SW620 cells, incubated for 6 days, CellTiter Glo, read-out: IC50 (SW620 ^c)
Description: as §1, §2, §3, §4

[7] = test system: MKN1 wild-type gastric cancer cell with KRAS-amplified; assay: Proliferation inhibition on RAS cell lines measured by CTG, MKN1; assay type: cell-based; conditions: Table 1, MKN1 cells, incubated for 6 days, CellTiter Glo, read-out: IC50 (MKN1 ^e)
Description: as §1, §2, §3, §4

[8] = test system: NCI-H441 lung cancer cell with KRAS G12V mutation; assay: Proliferation inhibition on RAS cell lines measured by CTG, NCI-H441; assay type: cell-based; conditions: NCI-H441 cells, incubated for 6 days
Description: as §1, §2, §3, §4

[9] = test system: LoVo colon cancer cell with KRAS G13D mutation; assay: Proliferation inhibition on RAS cell lines measured by CTG, LoVo; assay type: cell-based; conditions: LoVo cells, incubated for 6 days, read-out: IC50 (LoVo^g)
Description: as §1, §2, §3, §4

[10] = Pharmacokinetic study in mice after intravenous administration; assay type: in vivo; conditions: mouse, 5 mg/kg, male C57BL/6J mice, plasma
Protocol: (§5) After intravenous and oral administration in male C57BL/6J mice (6-8 weeks), plasma samples were collected through the orbital venous plexus at 8 time points (5 min, 15 min, 30 min, 1 h, 2 h, 4 h, 7 h, 24 h), and the collected blood samples were transferred to microcentrifuge tubes containing EDTA-K2 anticoagulant, and centrifuged at 4° C., 4,000 g. After 5 min, the supernatant was taken and stored in a refrigerator at −75° C. ±15° C. LC-MS/MS was used to detect the concentrations of the compounds in the plasma at different time points, and the relevant pharmacokinetic parameters […] were calculated using WinNonlin software.

[11] = Pharmacokinetic study in mice after oral administration; assay type: in vivo; conditions: mouse, 30 mg/kg, male C57BL/6J mice, plasma
Protocol: as §5

[12] = Homo sapiens, LS-513, 144 h, Table 2, CellTiter Glo
[13] = Homo sapiens, NCI-H441, 144 h, Table 1, CellTiter Glo
[14] = Homo sapiens, LoVo, 144 h, Table 1, CellTiter Glo
[15] = Homo sapiens, LS-513, 144 h, Table 1, CellTiter Glo

CCc1c(F)ccc2cc(O)cc(-c3ccc4c(N5CCCCCN5)nc(OC[C@@]56CCCN5C[C@H](F)C6)nc4c3)c12 [Compound 27]
IC50 [1]: 1000 to 10000 nM | IC50 [2, 12]: 100 to 1000 nM

C#Cc1c(F)ccc2cc(O)cc(-c3ccc4c(N5CCCCCN5)nc(OC[C@@]56CCCN5C[C@H](F)C6)nc4c3)c12 [Compound 26]
IC50 [1]: 1000 to 10000 nM | IC50 [2, 12]: 100 to 1000 nM

CCc1c(F)ccc2cc(O)cc(-c3ncc4c(N5CCCCCN5)nc(OC[C@@]56CCCN5C[C@H](F)C6)nc4c3F)c12 [Compound 3]
IC50 ([3]; Homo sapiens, 144 h): < 100 nM | IC50 ([4]; Homo sapiens, 144 h): 100 to 1000 nM | IC50 ([5]; Homo sapiens, 120 h): < 100 nM | IC50 ([6]; Homo sapiens, SW-620, 144 h): < 100 nM | IC50 ([7]; Homo sapiens, MKN-1, 144 h): < 100 nM

C#Cc1c(F)ccc2cc(O)cc(-c3ncc4c(N5CCCCCO5)nc(OC[C@@]56CCCN5C[C@H](F)C6)nc4c3F)c12 [Compound 9]
IC50 [8, 13]: < 100 nM | IC50 [9, 14]: < 100 nM | IC50 [2, 15]: < 100 nM

C#Cc1c(F)ccc2cc(O)cc(-c3ncc4c(N5CCCCCN5)nc(OCC56CCCN5CCC6)nc4c3F)c12 [Compound 25]
IC50 [1]: 100 to 1000 nM | IC50 [2, 12]: < 100 nM

CCc1c(F)ccc2cc(O)cc(-c3ncc4c(N5CCOCCN5)nc(OC[C@@]56CCCN5C[C@H](F)C6)nc4c3F)c12 [Compound 8]
IC50 ([3]; Homo sapiens, 144 h): < 100 nM | IC50 ([4]; Homo sapiens, 144 h): 100 to 1000 nM | IC50 ([5]; Homo sapiens, 120 h): < 100 nM | IC50 ([6]; Homo sapiens, SW-620, 144 h): < 100 nM | IC50 ([7]; Homo sapiens, MKN-1, 144 h): < 100 nM

C#Cc1c(F)ccc2cccc(-c3ncc4c(N5CCCCCN5)nc(OC[C@@]56CCCN5C[C@H](F)C6)nc4c3F)c12 [Compound 11]
IC50 [8, 13]: 100 to 1000 nM | IC50 [9, 14]: 100 to 1000 nM | IC50 [2, 15]: < 100 nM

C#Cc1cccc2cc(O)cc(-c3ncc4c(N5CCCCCN5)nc(OC[C@@]56CCCN5C[C@H](F)C6)nc4c3F)c12 [Compound 36]
IC50 [1]: < 100 nM | IC50 [2, 12]: < 100 nM

C#Cc1c(F)ccc2cc(O)cc(-c3ncc4c(N5CCCCCN5)nc(OCC5(CN6CCOCC6)CC5)nc4c3F)c12 [Compound 29]
IC50 [1]: < 100 nM | IC50 [2, 12]: < 100 nM

Oc1cc(-c2ncc3c(N4CCCCCN4)nc(OC[C@@]45CCCN4C[C@H](F)C5)nc3c2F)c2c(Cl)cccc2c1 [Compound 35]
IC50 [1]: 100 to 1000 nM | IC50 [2, 12]: < 100 nM

C#Cc1c(F)ccc2cc(O)cc(-c3ncc4c(N5CCOCCN5)nc(OC[C@@]56CCCN5C[C@H](F)C6)nc4c3F)c12 [Compound 7]
IC50 [3]: < 100 nM | IC50 [4]: 1000 to 10000 nM | IC50 [5]: < 100 nM | IC50 [6]: < 100 nM | IC50 [7]: 100 to 1000 nM

C#Cc1c(F)ccc2cc(O)cc(-c3ncc4c(N5CCCCCN5)nc(OC[C@@]56CCCN5C[C@H](F)C6)nc4c3F)c12 [Compound 4]
IC50 ([3]; Homo sapiens, 144 h): < 100 nM | IC50 ([8]; Homo sapiens, NCI-H441, 144 h, Table 1, numeric value): 3.6 nM | IC50 [8, 13]: < 100 nM | AUC(0-inf) [10]: 24300 ng·h/mL | AUC(0-t) [10]: 24300 ng·h/mL | C0 [10]: 96100 ng/mL | clearance [10]: 3.43 mL/min/kg | half-life ([10]; 5% DMSO + 10% Solutol HS15 + 85% (20% HP-β-CD in water)): 2.63 h | Vd ([10]; read-out: Vss): 0.205 L/kg | IC50 ([4]; Homo sapiens, 144 h): 100 to 1000 nM | IC50 ([5]; Homo sapiens, 120 h): < 100 nM | IC50 ([6]; Homo sapiens, SW-620, 144 h): < 100 nM | AUC(0-inf) [11]: 10400 ng·h/mL | AUC(0-t) [11]: 10400 ng·h/mL | Cmax [11]: 2290 ng/mL | Tmax [11]: 4 h | half-life ([11]; 0.1% Tween 80 + 0.5% MC in water): 1.89 h | IC50 ([9]; Homo sapiens, LoVo, 144 h, Table 1, numeric value): 7.8 nM | IC50 [9, 14]: < 100 nM | IC50 ([2]; Homo sapiens, LS-513, 144 h, Table 1, numeric value): 3.6 nM | IC50 [2, 15]: < 100 nM | IC50 ([7]; Homo sapiens, MKN-1, 144 h): < 100 nM

CCc1c(F)ccc2cc(O)cc(-c3ncc4c(N5CCCCCO5)nc(OC[C@@]56CCCN5C[C@H](F)C6)nc4c3F)c12 [Compound 10]
IC50 [8, 13]: 100 to 1000 nM | IC50 [9, 14]: 100 to 1000 nM | IC50 [2, 15]: < 100 nM

C#Cc1c(F)ccc2cc(O)cc(-c3nc(OC)c4c(N5CCCCCN5)nc(OC[C@@]56CCCN5C[C@H](F)C6)nc4c3F)c12 [Compound 33]
IC50 [1]: 100 to 1000 nM | IC50 [2, 12]: < 100 nM

CCc1c(F)ccc2cc(O)cc(-c3ncc4c(N5CC(C)(O)CCN5)nc(OCC56CCCN5CC(F)C6)nc4c3F)c12 (single isomer, unassigned) [Compound 2-1]
IC50 [3]: < 100 nM | IC50 ([8]; Table 1, CellTiter Glo, read-out: IC50 (NCI-H441^h)): 100 to 1000 nM | IC50 [4]: 1000 to 10000 nM | IC50 [5]: < 100 nM | IC50 [6]: < 100 nM | IC50 ([9]; Table 1, CellTiter Glo): < 100 nM | IC50 ([2]; Table 1, CellTiter Glo): < 100 nM | IC50 [7]: < 100 nM

CCc1c(F)ccc2cc(O)cc(-c3ncc4c(N5CCCCCN5)nc(OCC5(CN(C)C)CC5)nc4c3F)c12 [Compound 28]
IC50 [1]: 100 to 1000 nM | IC50 [2, 12]: < 100 nM
